Results: patent US20110086759A1, “CHEMICAL COMPOUNDS” (SYNGENTA CROP PROTECTION, INC., priority 2007, published 2011)

Experiments:
Type in all cases: in vivo
[1] = system: Echinochloa crus-galli (ECHCG); test: Post-emergence biological efficacy, glasshouse pot test; settings: 312 h, post-emergence, 1,000 g/ha, evaluated after 13 days (100=total damage; 0=no damage), read-out: Percentage damage caused to weed species, ECHCG
Summary of the method: (§1)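 Scored 13 days after spraying on a 0 (no damage) to 100 (total damage) scale. Treatment was a post-emergence spray at 1000 or 250 g/ha, from acetone/water 50:50 plus 0.5% Tween 20, onto 8-day-old plants in soil pots. Growth at 24/16° C, 14 h photoperiod, 65% humidity, watered twice daily.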

[2] = system: Amaranthus retoflexus (AMARE); test: as above; settings: Amaranthus retroflexus, 312 h; post-emergence, 1,000 g/ha, evaluated after 13 days (100=total damage; 0=no damage); read-out: Percentage damage caused to weed species, AMARE
Summary of the method: as §1

[3] = system: Ipomea hederaceae (IPOHE); test: as above; settings: Ipomoea hederacea, 312 h; post-emergence, 1,000 g/ha, evaluated after 13 days (100=total damage; 0=no damage); read-out: Percentage damage caused to weed species, IPOHE
Summary of the method: as §1

Setaria faberi (SETFA) [4] = test: as above; settings: 312 h, post-emergence, 1,000 g/ha, evaluated after 13 days (100=total damage; 0=no damage), read-out: Percentage damage caused to weed species, SETFA
Summary of the method: as §1

Solanum nigrum (SOLNI) [5] = test: as above; settings: 312 h, post-emergence, 1,000 g/ha, evaluated after 13 days (100=total damage; 0=no damage), read-out: Percentage damage caused to weed species, SOLNI
Summary of the method: as §1

[6] = system: Alopecurus myosuroides (ALOMY); test: as above; settings: 312 h, post-emergence, 1,000 g/ha, evaluated after 13 days (100=total damage; 0=no damage), read-out: Percentage damage caused to weed species, ALOMY
Summary of the method: as §1

[7] = system: Echinochloa crus-galli (ECHCG); test: Pre-emergence biological efficacy, glasshouse pot test; settings: 312 h, pre-emergence, 1,000 g/ha, evaluated after 13 days (100=total damage; 0=no damage), read-out: Percentage damage ECHCG
Summary of the method: (§2)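 Damage was rated on a 0–100 scale 13 days after treatment, with plants kept at 24/16° C, 14 h light and 65% humidity. The pre-emergence spray, at 1000 or 250 g/ha in acetone/water 50:50 with 0.5% Tween 20, was applied one day after sowing.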

[8] = system: Amaranthus retoflexus (AMARE); test: as above; settings: Amaranthus retroflexus, 312 h; pre-emergence, 1,000 g/ha, evaluated after 13 days (100=total damage; 0=no damage); read-out: Percentage damage AMARE
Summary of the method: as §2

[9] = system: Ipomea hederaceae (IPOHE); test: as above; settings: Ipomoea hederacea, 312 h; pre-emergence, 1,000 g/ha, evaluated after 13 days (100=total damage; 0=no damage); read-out: Percentage damage IPOHE
Summary of the method: as §2

Setaria faberi (SETFA) [10] = test: as above; settings: 312 h, pre-emergence, 1,000 g/ha, evaluated after 13 days (100=total damage; 0=no damage), read-out: Percentage damage SETFA
Summary of the method: as §2

Solanum nigrum (SOLNI) [11] = test: as above; settings: 312 h, pre-emergence, 1,000 g/ha, evaluated after 13 days (100=total damage; 0=no damage), read-out: Percentage damage SOLNI
Summary of the method: as §2

[12] = system: Alopecurus myosuroides (ALOMY); test: as above; settings: 312 h, pre-emergence, 1,000 g/ha, evaluated after 13 days (100=total damage; 0=no damage), read-out: Percentage damage ALOMY
Summary of the method: as §2

Structure (SMILES): COC(=O)c1nc(C2CC2)nc(NCc2cccc(F)c2)c1Cl [Compound 4-65, 5-Chloro-2-cyclopropyl-4-(3-fluorophenylmethyl-amino)-6-methoxycarbonyl-pyrimidine]
- pest or weed control at 1000 g/ha [1]: 80%
- pest or weed control at 1000 g/ha [2]: 100%
- pest or weed control at 1000 g/ha [3]: 100%
- pest or weed control at 1000 g/ha (Setaria faberi (SETFA) [4]): 100%
- pest or weed control at 1000 g/ha (Solanum nigrum (SOLNI) [5]): 100%
- pest or weed control at 1000 g/ha [6]: 20%
- pest or weed control at 1000 g/ha [7]: 60%
- pest or weed control at 1000 g/ha [8]: 80%
- pest or weed control at 1000 g/ha [9]: 70%
- pest or weed control at 1000 g/ha (Setaria faberi (SETFA) [10]): 40%
- pest or weed control at 1000 g/ha (Solanum nigrum (SOLNI) [11]): 80%
- pest or weed control at 1000 g/ha [12]: 20%

Structure (SMILES): COC(=O)c1nc(C2CC2)nc(NCCSCc2ccccc2)c1Cl [Compound 4-262, 5-Chloro-2-cyclopropyl-6-methoxycarbonyl-4-[2-(phenylmethyl-thio)ethylamino]-pyrimidine]
- pest or weed control at 1000 g/ha [1]: 10%
- pest or weed control at 1000 g/ha [2]: 80%
- pest or weed control at 1000 g/ha [3]: 60%
- pest or weed control at 1000 g/ha (Setaria faberi (SETFA) [4]): 30%
- pest or weed control at 1000 g/ha (Solanum nigrum (SOLNI) [5]): 60%
- pest or weed control at 1000 g/ha [6]: 10%
- pest or weed control at 1000 g/ha [7]: 0%
- pest or weed control at 1000 g/ha [8]: 40%
- pest or weed control at 1000 g/ha [9]: 50%
- pest or weed control at 1000 g/ha (Setaria faberi (SETFA) [10]): 0%
- pest or weed control at 1000 g/ha (Solanum nigrum (SOLNI) [11]): 10%
- pest or weed control at 1000 g/ha [12]: 0%

Structure (SMILES): COC(=O)c1nc(C2CC2)nc(N[C@@H]2c3ccccc3C[C@@H]2O)c1Cl [4-37 (1R,2S), 5-Chloro-2-cyclopropyl-4-[(1R, 2S)-2-hydroxy-indan-1-ylamino]-6-methoxycarbonyl-pyrimidine]
- pest or weed control at 1000 g/ha [1]: 60%
- pest or weed control at 1000 g/ha [2]: 100%
- pest or weed control at 1000 g/ha [3]: 100%
- pest or weed control at 1000 g/ha (Setaria faberi (SETFA) [4]): 70%
- pest or weed control at 1000 g/ha (Solanum nigrum (SOLNI) [5]): 100%
- pest or weed control at 1000 g/ha [6]: 30%
- pest or weed control at 1000 g/ha [7]: 60%
- pest or weed control at 1000 g/ha [8]: 100%
- pest or weed control at 1000 g/ha [9]: 100%
- pest or weed control at 1000 g/ha (Setaria faberi (SETFA) [10]): 80%
- pest or weed control at 1000 g/ha (Solanum nigrum (SOLNI) [11]): 100%
- pest or weed control at 1000 g/ha [12]: 50%

Structure (SMILES): COC(=O)c1nc(C2CC2)nc(NCCSCc2c(Cl)cccc2Cl)c1Cl [Compound 4-263, 5-Chloro-2-cyclopropyl-4-{2-[(2,6-dichloro-phenyl)methylthio]-ethylamino}-6-methoxycarbonyl-pyrimidine]
- pest or weed control at 1000 g/ha [1]: 0%
- pest or weed control at 1000 g/ha [2]: 90%
- pest or weed control at 1000 g/ha [3]: 50%
- pest or weed control at 1000 g/ha (Setaria faberi (SETFA) [4]): 30%
- pest or weed control at 1000 g/ha (Solanum nigrum (SOLNI) [5]): 60%
- pest or weed control at 1000 g/ha [6]: 0%
- pest or weed control at 1000 g/ha [7]: 0%
- pest or weed control at 1000 g/ha [8]: 30%
- pest or weed control at 1000 g/ha [9]: 30%
- pest or weed control at 1000 g/ha (Setaria faberi (SETFA) [10]): 0%
- pest or weed control at 1000 g/ha (Solanum nigrum (SOLNI) [11]): 10%
- pest or weed control at 1000 g/ha [12]: 0%

Structure (SMILES): COC(=O)c1nc(C2CC2)nc(NCc2ccc(C)cc2)c1Cl [Compound 4-73, 5-Chloro-2-cyclopropyl-6-methoxycarbonyl-4-(4-methylphenyl-methylamino)-pyrimidine]
- pest or weed control at 1000 g/ha [1]: 60%
- pest or weed control at 1000 g/ha [2]: 100%
- pest or weed control at 1000 g/ha [3]: 100%
- pest or weed control at 1000 g/ha (Setaria faberi (SETFA) [4]): 80%
- pest or weed control at 1000 g/ha (Solanum nigrum (SOLNI) [5]): 100%
- pest or weed control at 1000 g/ha [6]: 20%
- pest or weed control at 1000 g/ha [7]: 30%
- pest or weed control at 1000 g/ha [8]: 70%
- pest or weed control at 1000 g/ha [9]: 80%
- pest or weed control at 1000 g/ha (Setaria faberi (SETFA) [10]): 20%
- pest or weed control at 1000 g/ha (Solanum nigrum (SOLNI) [11]): 60%
- pest or weed control at 1000 g/ha [12]: 10%
